Here are results for 7 molecules from publication PMC11235165, “Delocalized quinolinium-macrocyclic peptides, an atypical chemotype for CNS penetration” (Science Advances, 2024).

Details of data set [1]: method as in PMID 26352530. Conditions: cited from earlier work.
In data set [2] the test system is Caco-2 cells. The arrangement: method as in PMID 26352530. The following applies: cited from earlier work.
For data set [3] the following is noted: mouse, in vivo; for Cl_obs: ip.
Data set [4] in a line: Hepatocyte clearance (mouse). The following applies: mouse hepatocytes. In kind it is in vitro ADME.
Data set [5] in a line: Hepatocyte clearance (human). The following applies: human hepatocytes. Format: in vitro ADME.
Data set [6] can be described thus: Brain tissue binding (fraction unbound). Format: in vitro ADME. The following applies: read-out: Brain tissue (fu). The source says: Table 1. Key data for lead optimization. SD, standard deviation of the mean; SE, standard error of the mean; fu, fraction unbound; ND, not determined. | column: Brain tissue (fu)
Data set [7] can be described thus: in vivo. The following applies: ABH, mouse, ip, 10 mg/kg; for level at 24 h: Brain concentrations at 24 hours.
In data set [8] the target is hERG (Homo sapiens, UniProt Q12809). Nature of the data set: hERG inhibition. In kind it is biochemical. Conditions: for inhibition at 25 µM: hERG (% inhibition at 25 μM).
hERG, sequence (Q12809 whole entry): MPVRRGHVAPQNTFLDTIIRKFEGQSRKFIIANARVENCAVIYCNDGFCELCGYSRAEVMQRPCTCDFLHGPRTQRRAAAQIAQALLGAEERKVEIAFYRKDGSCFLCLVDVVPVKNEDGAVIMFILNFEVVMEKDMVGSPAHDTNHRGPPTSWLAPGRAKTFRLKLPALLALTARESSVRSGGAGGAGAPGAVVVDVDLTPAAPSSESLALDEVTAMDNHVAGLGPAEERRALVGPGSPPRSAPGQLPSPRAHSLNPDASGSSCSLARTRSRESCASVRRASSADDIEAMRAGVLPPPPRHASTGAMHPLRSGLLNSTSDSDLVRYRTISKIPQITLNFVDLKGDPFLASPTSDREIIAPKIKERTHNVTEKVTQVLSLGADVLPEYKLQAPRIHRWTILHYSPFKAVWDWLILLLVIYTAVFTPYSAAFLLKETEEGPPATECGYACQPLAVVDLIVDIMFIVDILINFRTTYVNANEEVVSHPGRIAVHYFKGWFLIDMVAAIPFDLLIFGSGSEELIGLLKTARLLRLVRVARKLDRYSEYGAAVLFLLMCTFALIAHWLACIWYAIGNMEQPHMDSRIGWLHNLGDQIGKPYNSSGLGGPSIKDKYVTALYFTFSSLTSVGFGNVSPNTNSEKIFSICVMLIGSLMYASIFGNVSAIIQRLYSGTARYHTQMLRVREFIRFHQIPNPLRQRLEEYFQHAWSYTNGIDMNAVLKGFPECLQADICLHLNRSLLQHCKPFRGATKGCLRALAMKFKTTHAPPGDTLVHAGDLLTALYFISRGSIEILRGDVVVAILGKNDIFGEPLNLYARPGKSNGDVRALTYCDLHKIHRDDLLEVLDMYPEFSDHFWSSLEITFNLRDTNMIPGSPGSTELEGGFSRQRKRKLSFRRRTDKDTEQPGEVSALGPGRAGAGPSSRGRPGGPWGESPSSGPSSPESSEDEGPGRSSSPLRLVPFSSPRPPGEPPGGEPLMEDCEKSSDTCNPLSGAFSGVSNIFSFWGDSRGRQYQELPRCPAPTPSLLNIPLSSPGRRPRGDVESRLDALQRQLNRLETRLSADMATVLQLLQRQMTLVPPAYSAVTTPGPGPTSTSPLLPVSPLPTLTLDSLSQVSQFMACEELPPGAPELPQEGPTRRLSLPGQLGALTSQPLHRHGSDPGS
For data set [9] the following is noted: mouse, in vivo; for AUC(0-inf) / AUC(0-t) / half-life: ip, 10 mg/kg.
Data set [10] deals with CypD (Homo sapiens, UniProt P30405). Kind of data set: Fluorescence polarization cyclophilin D binding assay. Conditions: Table S7; focused SAR set; read-out: CypD Ki.
CypD, sequence (P30405 30-207): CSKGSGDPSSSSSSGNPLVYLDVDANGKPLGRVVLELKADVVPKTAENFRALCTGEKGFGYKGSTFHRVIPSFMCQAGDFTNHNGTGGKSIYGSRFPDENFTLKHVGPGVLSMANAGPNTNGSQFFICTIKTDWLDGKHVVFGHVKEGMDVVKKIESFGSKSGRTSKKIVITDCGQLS
Data set [11] deals with Cyclophilin A (CypA) (Homo sapiens, UniProt P62937). Nature of the data set: Fluorescence polarization cyclophilin A binding assay. The following applies: Table S7; focused SAR set; read-out: CypA Ki.
Cyclophilin A (CypA), sequence (P62937 whole entry): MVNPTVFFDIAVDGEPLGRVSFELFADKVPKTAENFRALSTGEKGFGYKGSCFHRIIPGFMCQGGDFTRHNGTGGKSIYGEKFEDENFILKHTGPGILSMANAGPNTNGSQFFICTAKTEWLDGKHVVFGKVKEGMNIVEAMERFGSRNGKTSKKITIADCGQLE
The nature of data set [12]: Plasma protein binding (fraction unbound). Format: in vitro ADME. The following applies: read-out: Plasma protein (fu).
For data set [13], the system named is mitochondrial permeability transition pore (mPTP). Kind of data set: Calcium retention capacity (CRC) assay in isolated liver mitochondria. Format: biochemical, rat.
A short description of data set [14]: Pharmacokinetic study, plasma and brain levels by LC-MS/MS.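 Also: ABH mice, four per group, dosed intraperitoneally, plasma and brain taken at set times after euthanasia, drug levels quantified by LC-MS/MS.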
The subject of data set [15] is CRFK and CRFK-TRIMCypA cells. Nature of the data set: MTT viability of CRFK and CRFK-TRIMCypA cells. In kind it is cell-based, Feline. Conditions: 48 hours, up to 20 μM.
Data set [16] concerns the target T1, TRIM-CypA (Homo sapiens, UniProt P62937+Q6PIZ9).
T1 construct: expressed in transfected cells; host or cells: CRFK (Crandell-Rees Feline Kidney) cells transduced with MLV EXN-TRIM-CypA vector, G418 selected
In kind it is cell-based. Conditions: CRFK-TRIMCypA cells; 0.5-20 μM; 48 hours; GFP-positive cells by flow cytometry.

Each structure is given as a SMILES string. Read-outs that look alike come from different tables or passages of the source.

T1 sequence (P62937 2-165, one chain of several): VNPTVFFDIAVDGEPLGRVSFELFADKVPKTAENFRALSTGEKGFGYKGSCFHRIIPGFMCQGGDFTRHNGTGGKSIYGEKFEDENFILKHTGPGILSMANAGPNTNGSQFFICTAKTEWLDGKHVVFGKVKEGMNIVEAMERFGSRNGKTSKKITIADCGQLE

In the case of `COc1ccc2cc3[n+](cc2c1OC)CCc1cc2c(cc1-3)OCO2` [Berberine, berberine], the PAMPA permeability in data set [1] was 1e-06 to 1.2e-06 cm/s. In [2] (AP-BL), the “Caco-2 cell line permeability AP-BL” value is 2.59e-06 cm/s. In addition, the “Caco-2 cell line permeability BL-AP” value in [2] (BL-AP) was 2.516e-05 cm/s.

In the case of `CC[C@@H]1NC(=O)[C@H]([C@H](O)[C@H](C)C/C=C/CCC[n+]2ccc(N3CCOCC3)c3ccc(C(F)(F)F)cc32)N(C)C(=O)[C@H](C(C)C)N(C)C(=O)[C@H](CC(C)C)N(C)C(=O)[C@H](CC(C)C)N(C)C(=O)[C@@H](C)NC(=O)[C@H](C)NC(=O)[C@H](CC(C)C)N(C)C(=O)[C@H](C(C)C)NC(=O)[C@H](CC(C)C)N(C)C(=O)CN(C)C1=O` [JP1-138], in [3], the “Brain AUC as % of the plasma AUC” value is “about 2%”. The Cl_obs in [3] (10 mg/kg) is recorded as 4.43 × 10^−05 (mg/kg)/(ng/ml).hour. In addition, the hepatocyte CLint in [4] was found to be 9.61 µL/min/1e6 cells. The molecule also displayed an intrinsic clearance (hepatocyte CLint) in [5] of 7.62 µL/min/1e6 cells. For the same molecule, the fraction unbound in [6] came to 0.00084. In [7], this molecule yielded a level at time molar at 24 h of 391 nM and a level at 24 h of 592 ng/mL. In [8] (25 μM), this molecule displayed an inhibition at 25 µM of 37.7%. In [9], this molecule had an area under the curve (AUC) of 198 µg·h/mL, an AUC(0-inf) of 226 µg·h/mL, an area under the curve AUC(0-t) of 216 µg·h/mL and a half-life of 349 min. The Ki in [10] was found to be 64 ± 16 nM. In addition, the Ki in [11] was 42 nM.

For the molecule `CC[C@@H]1NC(=O)[C@H]([C@H](O)[C@H](C)C/C=C/CCC[n+]2ccc(N3CCOCC3)c3ccccc32)N(C)C(=O)[C@H](C(C)C)N(C)C(=O)[C@H](CC(C)C)N(C)C(=O)[C@H](CC(C)C)N(C)C(=O)[C@@H](C)NC(=O)[C@H](C)NC(=O)[C@H](CC(C)C)N(C)C(=O)[C@H](C(C)C)NC(=O)[C@H](CC(C)C)N(C)C(=O)CN(C)C1=O` [JP1-141], in [3] (10 mg/kg), the “Toxicity in the pharmacokinetic experiment” value is listed as “some toxicity” and the Cl_obs is listed as 9.57 × 10^−05 (mg/kg)/(ng/ml).hour. In addition, the hepatocyte CLint in data set [4] was determined as 3.59 µL/min/1e6 cells. The same molecule yielded a hepatocyte CLint in data set [5] of 3.62 µL/min/1e6 cells. Besides, the fraction unbound in data set [6] stood at 0.01. In [7], this molecule returned a level at time molar at 24 h of 642 nM and a level at 24 h of 927 ng/mL. In data set [8] (25 μM), the “hERG (% inhibition at 25 μM)” value came out at 63.9% and at 25 µM the inhibition was 65%. In data set [9], this molecule showed an AUC(0-inf) of 105 µg·h/mL, an AUC(0-t) of 103 µg·h/mL and a half-life of 242 min. Besides, the Ki in data set [11] was 29 nM.

Consider `CC[C@@H]1NC(=O)[C@H]([C@H](O)[C@H](C)C/C=C/CCC[n+]2ccc(N3CCCCC3)c3ccc(C(F)(F)F)cc32)N(C)C(=O)[C@H](C(C)C)N(C)C(=O)[C@H](CC(C)C)N(C)C(=O)[C@H](CC(C)C)N(C)C(=O)[C@@H](C)NC(=O)[C@H](C)NC(=O)[C@H](CC(C)C)N(C)C(=O)[C@H](C(C)C)NC(=O)[C@H](CC(C)C)N(C)C(=O)CN(C)C1=O` [JP1-164], for which the fraction unbound in [12] stood at 0.69. In addition, the Cl_obs in data set [3] (10 mg/kg) is 7.09 × 10^−05 (mg/kg)/(ng/ml).hour. For the same molecule, the intrinsic metabolic clearance (hepatocyte CLint) in data set [4] was determined as 5.89 µL/min/1e6 cells. The same molecule showed a hepatocyte CLint in [5] of 22.4 µL/min/1e6 cells. Also, the fraction unbound in data set [6] was found to be 0.01. In data set [7], the level at time molar at 24 h was found to be 380 nM and the level at 24 h amounted to 574 ng/mL. In data set [8] (25 μM), the inhibition at 25 µM was found to be 14.2%. Further, in data set [9], the AUC(0-inf) turned out to be 141 µg·h/mL, the AUC(0-t) came to 134 µg·h/mL and the half-life was 341 min.

Take `CC[C@@H]1NC(=O)[C@H]([C@H](O)[C@H](C)C/C=C/CCC[n+]2ccc(N3CCCCC3)c3ccccc32)N(C)C(=O)[C@H](C(C)C)N(C)C(=O)[C@H](CC(C)C)N(C)C(=O)[C@H](CC(C)C)N(C)C(=O)[C@@H](C)NC(=O)[C@H](C)NC(=O)[C@H](CC(C)C)N(C)C(=O)[C@H](C(C)C)NC(=O)[C@H](CC(C)C)N(C)C(=O)CN(C)C1=O` [JP1-166]: in data set [12], the fraction unbound is 0.43. Besides, in data set [3] (10 mg/kg), the Cl_obs is recorded as 1.67 × 10^−04 (mg/kg)/(ng/ml).hour. Besides, in data set [4], the intrinsic clearance (hepatocyte CLint) is 9.47 µL/min/1e6 cells. The molecule also returned a hepatocyte CLint in [5] of 8.01 µL/min/1e6 cells. Moreover, in [7], the level at time molar at 24 h is 86 nM and the level at 24 h amounted to 124 ng/mL. For the same molecule, the inhibition at 25 µM in [8] (25 μM) was found to be 31.4%. In data set [9], this molecule gave an AUC(0-inf) of 59.9 µg·h/mL, an exposure AUC(0-t) of 55 µg·h/mL and a half-life of 405 min. Moreover, in data set [11], the Ki amounted to 31 ± 3 nM.

Consider `CC[C@@H]1NC(=O)[C@H]([C@H](O)[C@H](C)C/C=C/CCC[n+]2ccc(N(C)C)c3ccccc32)N(C)C(=O)[C@H](C(C)C)N(C)C(=O)[C@H](CC(C)C)N(C)C(=O)[C@H](CC(C)C)N(C)C(=O)[C@@H](C)NC(=O)[C@H](C)NC(=O)[C@H](CC(C)C)N(C)C(=O)[C@H](C(C)C)NC(=O)[C@H](CC(C)C)N(C)C(=O)CN(C)C1=O` [JP1-180], for which the fraction unbound in data set [12] worked out at 0.17. For the same molecule, the Cl_obs in [3] (10 mg/kg) is listed as 1.61 × 10^−04 (mg/kg)/(ng/ml).hour. In data set [4], this molecule showed an intrinsic metabolic clearance (hepatocyte CLint) of 4.07 µL/min/1e6 cells. Besides, the intrinsic clearance (hepatocyte CLint) in data set [5] was found to be 4.65 µL/min/1e6 cells. For the same molecule, in data set [7], the level at time molar at 24 h came to 142 nM and the level at 24 h turned out to be 196 ng/mL. This molecule also had an inhibition at 25 µM in data set [8] (25 μM) of 9.75%. For the same molecule, in [9], the AUC(0-inf) was found to be 62.1 µg·h/mL, the area under the curve AUC(0-t) came to 59.3 µg·h/mL and the half-life was 304 min. Also, in data set [10], the Ki turned out to be 77 ± 46 nM.

For the molecule `CC[C@@H]1NC(=O)[C@H]([C@H](O)[C@H](C)C/C=C/CCC[n+]2ccc(N(C)C)c3ccc(C(F)(F)F)cc32)N(C)C(=O)[C@H](C(C)C)N(C)C(=O)[C@H](CC(C)C)N(C)C(=O)[C@H](CC(C)C)N(C)C(=O)[C@@H](C)NC(=O)[C@H](C)NC(=O)[C@H](CC(C)C)N(C)C(=O)[C@H](C(C)C)NC(=O)[C@H](CC(C)C)N(C)C(=O)CN(C)C1=O` [JW76], in data set [13] (Table S4 / Fig. S2, rat liver mitochondria, 500 nM, (Treated-NonTreated)/NonTreated)*100), the CRC inhibition % is on record as 54.7%. Besides, the “CRC % inhibition at 10 nM” value in data set [13] (Table S7, 10 nM) came to 32.9%. Also, the fraction unbound in [12] was 0.0039. The level at 1 h was 668 ng/mL in data set [14] (ABH, mouse, brain, ip, Brain ng/mL, mice, 1 h) and 50800 ng/mL in data set [14] (ABH, mouse, plasma, ip, Plasma (ng/mL), mice, 1 h). The level at 4 h in data set [14] (ABH, mouse, brain, ip, Brain ng/mL, mice, 4 h) is 545 ng/mL. Also, the “Detectability in the brain at 48 hours” value in data set [14] (longer-term pharmacokinetic study, 48 hours) is given as “not detectable”. The “Brain” value in data set [14] (mice, 1 h) is 668 ng/mL. Besides, the AUC in data set [14] (mouse, in vivo) was determined as 67000 ng·h/mL. Besides, the hepatocyte CLint was 6.81 µL/min/1e6 cells in data set [4] and 5.62 µL/min/1e6 cells in data set [5]. Moreover, the “Toxicity to non-restricting and restricting cells (MTT)” value in [15] is reported as “not toxic at any concentration tested”. In addition, the “hERG activity” value in data set [8] is listed as “little hERG activity”. In addition, the inhibition at 25 µM in data set [8] (25 μM) amounted to 16.3%. The “Rescue of HIV-1 infectivity of restricting (TRIM-CypA) cells” value in [16] is “rescued infectivity poorly and only at 20 μM”.
